Laboratory results reported in publication PMC9714295, “DadY (PA5303) is required for fitness of Pseudomonas aeruginosa when growth is dependent on alanine catabolism” (Microbial Cell, 2022).

Tests used:
DadA = target: T1, DadA (Pseudomonas aeruginosa, UniProt Q9HTQ0); experiment: semicarbazone formation, A248; format: biochemical; details: 7.5 mM D-alanine; 10 mM semicarbazide, 30 uM FAD, 100 uM ubiquinone-1; pH 8.7, 25 C; no DadY
T1 construct: gene dadA1
T1 sequence (Q9HTQ0 1-432): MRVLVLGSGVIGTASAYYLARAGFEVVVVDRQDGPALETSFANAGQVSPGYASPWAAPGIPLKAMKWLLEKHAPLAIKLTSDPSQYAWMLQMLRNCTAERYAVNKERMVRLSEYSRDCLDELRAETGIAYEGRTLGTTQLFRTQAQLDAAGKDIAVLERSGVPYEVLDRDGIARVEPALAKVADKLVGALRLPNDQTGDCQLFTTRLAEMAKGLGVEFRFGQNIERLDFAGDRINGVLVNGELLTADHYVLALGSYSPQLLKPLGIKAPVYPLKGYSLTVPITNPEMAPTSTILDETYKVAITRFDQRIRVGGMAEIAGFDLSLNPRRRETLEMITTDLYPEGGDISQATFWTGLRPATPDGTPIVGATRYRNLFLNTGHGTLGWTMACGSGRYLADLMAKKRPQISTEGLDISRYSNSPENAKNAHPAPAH

DadY (PA5303) = target: T2, DadY (PA5303) (Pseudomonas aeruginosa, UniProt Q9HTQ1); experiment: semicarbazone competition assay, A248, imine generated by DadA; format: biochemical; details: imine made in situ from 7.5 mM D-alanine by 0.5 uM DadA; 5 uM DadY; 10 mM semicarbazide, FAD, ubiquinone-1; pH 8.7, 25 C
T2 sequence (Q9HTQ1 1-117): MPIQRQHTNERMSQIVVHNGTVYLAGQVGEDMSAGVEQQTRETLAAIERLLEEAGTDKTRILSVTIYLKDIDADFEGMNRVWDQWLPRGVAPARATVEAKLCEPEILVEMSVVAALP

Compound	semicarbazone formation, A248 (DadA)	semicarbazone competition assay, A248, imine generated by DadA (DadY (PA5303))
C[C@@H](N)C(=O)O [D-alanine]	When DadA used D-alanine as a substrate and semicarbazide was present, a semicarbazone compound was formed	–
CC(=N)C(=O)O [imino-alanine]	–	DadY could act on the imine derived from D-alanine that was generated by DadA
